# Assay results taken from patent US10407423B2, “Compounds as inhibitors of DNA methyltransferases” (FUNDACIÓN PARA LA INVESTIGACIÓN MÉDICA APLICADA, priority 2015, dated 2019).
# Key:
# human G9a enzyme = human G9a enzyme (Homo sapiens (Human), UniProt Q96KQ7); test: G9a enzyme activity assay (TR-FRET); type: biochemical; details: 1 hour at room temperature
# Method: G9a Enzyme Activity Assay
# The biochemical assay to measure G9a enzyme activity relies on time-resolved fluorescence energy transfer (TR-FRET) between europium cryptate (donor) and XL665 (acceptor). TR-FRET is observed when biotinylated histone monomethyl-H3K9 peptide is incubated with cryptate-labeled anti-dimethyl-histone H3K9 antibody (CisBio Cat#61KB2KAE) and streptavidin XL665 (CisBio Cat#610SAXLA), after enzymatic reaction of G9a.
# The human G9a enzyme expressed in a baculovirus infected Sf9 cell expression system was obtained from BPS Biosciences (Cat. #51001). Enzyme activity assay was carried out in a white 384-well plate in a final volume of 20 μl, as follow: • 4 μl of vehicle or studied compound 2.5× concentrated prepared in assay buffer (50 mM Tris-HCl, 10 mM NaCl, 4 mM DTT, 0.01% Tween-20 pH9). Final percentage of DMSO was 0.5%. • 2 μl of 1 nM G9a enzyme diluted in assay buffer. Final concentration was 0.2 nM. • Start the reaction by adding 4 μl of substrate mixture containing 20 μM S-adenosylmethionine and 40 nM biotinylated histone monomethyl-H3K9 peptide. • Reaction was carried out during 1 hour at room temperature. • Enzyme activity was stopped by adding 5 μl of cryptate-labeled anti-dimethyl-histone H3K9 antibody. Final concentration 150 nM. • Then, add 5 μl of streptavidin XL665 beads. Final concentration of 16 μM. • Read the plate after 1 hour of incubation at room temperature.
# (§1) For each well, fluorescence was measured at 620 nm and 665 nm. A ratio (665 nm/620 nm) was then calculated in order to minimize medium interferences. Positive control was obtained in the presence of the vehicle of the compounds. Negative control was obtained in the absence of G9a enzyme activity. Calculated IC50 values were determined using GraphPrism using 4-parameters inhibition curve.
# human DNMT1 = human DNMT1 (Homo sapiens (Human), UniProt P26358); test: DNMT1 enzyme activity assay (TR-FRET, EPIgeneous methyltransferase assay); type: biochemical; details: 15 minutes at 37° C.
# Method: DNMT1 Enzyme Activity Assay
# The biochemical assay to measure DNMT1 enzyme activity relies on time-resolved fluorescence energy transfer (TR-FRET) between lumi4-Tb (donor) and d2 (acceptor) using the EPlgeneous methyltransferase assay (CisBio Cat#62SAHPEB). TR-FRET is observed when antibody specific to S-adenosylhomocysteine labeled with Lumi4-Tb is incubated with d2-labeled S-adenosylhomocysteine. TR-FRET signal is inversely proportional to the concentration of SAH, product of DNMT1 enzyme activity, in the sample. The human DNMT1 was obtained from Reaction Biology Corp. (Cat# DMT-21-124).
# Enzyme activity assay was carried out in a white 384-well plate in a final volume of 20 μl, as follow: • 4 μl of vehicle or studied compound 2.5× concentrated prepared in assay buffer (50 mM Tris-HCl, 1 mM EDTA, 1 mM DTT, 0.1% Triton X-100, 5% glycerol pH 7.5). Final percentage of DMSO was 0.5%. • 2 μl of […] DNMT1 enzyme diluted in assay buffer. Final concentration was 20 nM. • Start the reaction by adding 4 μl of substrate mixture containing 1 μM S-adenosylmethionine and 1 μM poly-deoxy inosine poly-deoxy cytosine (pdI-pdC) DNA. • Reaction was carried out during 15 minutes at 37° C. • Enzyme activity was stopped by adding 2 μl of buffer one of the EPIgeneous methyltransferase assay. • After 10 minutes at room temperature, it was added 4 μl of antibody specific to S-adenosylhomocysteine labeled with Lumi4-Tb 50× diluted in buffer two of the EPIgeneous methyltransferase assay. • Add 4 μl of d2-labeled S-adenosylhomocysteine 31× diluted in buffer two of the EPIgeneous methyltransferase assay. • Read the plate after 1 hour of incubation at room temperature.
# as §1
# [1] = test system: CEMO-1 cells (acute lymphocytic leukemia, ALL); test: Cell proliferation assay (CellTiter 96 Aqueous One), CEMO-1; type: cell-based; details: CEMO-1 (ALL), 48 hours of treatment
# Method: (§2) Cell proliferation was analyzed after 48 hours of in vitro treatment using the CellTiter 96 Aqueous One Solution Cell Proliferation Assay (Promega, Madison, W). This is a colorimetric method for determining the number of viable cells in proliferation.
# (§3) For the assay, suspension cells were cultured by triplicate at a density of 1×10^6 cells/ml in 96-well plates (100.000 cells/well, 100 μl/well), except for OCI-Ly3 and OCI-Ly10 cell lines which were cultured at a density of 0.5×10^6 cells/ml (50,000 cells/well, 100 μl/well) and for HepG2, Hep3B and PLC/PRF/5 cell lines which were cultured at a density of 3000 cells/well, 100 μl/well). Adherent cells were obtained from 80-90% confluent flasks and 100 μl of cells were seeded at a density of 5000 cells/well in 96-well plates by triplicate. Before addition of the compounds, adherent cells were allowed to attach to the bottom of the wells for 12 hours. In all cases, only the 60 inner wells were used to avoid any border effects.
# (§4) After 48 hours of treatment, plates with suspension cells were centrifuged at 800 g for 10 minutes and medium was removed. The plates with adherent cells were flicked to remove medium. Then, cells were incubated with 100 μl/well of medium and 20 μl/well of CellTiter 96 Aqueous One Solution reagent. After 1-3 hours of incubation at 37° C., absorbance was measured at 490 nm in a 96-well plate reader. The background absorbance was measured in wells with only cell line medium and solution reagent. Data was calculated as a percentage of total absorbance of treated cell/absorbance of non treated cells.
# (§5) These cancer cell lines and primary cultures correspond to acute lymphocytic leukemia (ALL), CEMO-1, to activated B-cell-like diffuse large B-cell lymphoma (ABC-DLBCL), OCI-Ly3 and OCI-Ly10 and to hepatocellular carcinoma cells (HCC), HepG2, Hep3B and PLC/PRF/5.
# [2] = test system: OCI-Ly3 cells (ABC-DLBCL); test: Cell proliferation assay (CellTiter 96 Aqueous One), OCI-Ly3; type: cell-based; details: Homo sapiens, 48 hours of treatment
# Method: as §2
# as §3, with “In all cases, only the 60 inner wells were used to avoid any border effects.” left out
# as §4, with “The plates with adherent cells were flicked to remove medium. Then, cells were incubated with 100 μl/well of medium and 20 μl/well of CellTiter 96 Aqueous One Solution reagent.” left out, “cells. […]” for “cells.”
# [3] = test system: OCI-Ly10 cells (ABC-DLBCL); test: Cell proliferation assay (CellTiter 96 Aqueous One), OCI-Ly10; type: cell-based; details: Homo sapiens, 48 hours of treatment
# Method: as §2
# as §3, with “In all cases, only the 60 inner wells were used to avoid any border effects.” left out
# as §4, with “The plates with adherent cells were flicked to remove medium. Then, cells were incubated with 100 μl/well of medium and 20 μl/well of CellTiter 96 Aqueous One Solution reagent.” left out, “cells. […]” for “cells.”
# [4] = test system: HepG2 cells (hepatocellular carcinoma); test: Cell proliferation assay (CellTiter 96 Aqueous One), HepG2; type: cell-based; details: HepG2 (HCC), 48 hours of treatment
# Method: as §2, §3, §4, §5
# [5] = test system: Hep3B cells (hepatocellular carcinoma); test: Cell proliferation assay (CellTiter 96 Aqueous One), Hep3B; type: cell-based; details: Hep3B (HCC), 48 hours of treatment
# Method: as §2, §3, §4, §5
# [6] = test system: PLC/PRF/5 cells (hepatocellular carcinoma); test: Cell proliferation assay (CellTiter 96 Aqueous One), PLC/PRF/5; type: cell-based; details: PLC/PRF/5 (HCC), 48 hours of treatment
# Method: as §2, §3, §4, §5
# Sequence of human DNMT1 (P26358 whole entry): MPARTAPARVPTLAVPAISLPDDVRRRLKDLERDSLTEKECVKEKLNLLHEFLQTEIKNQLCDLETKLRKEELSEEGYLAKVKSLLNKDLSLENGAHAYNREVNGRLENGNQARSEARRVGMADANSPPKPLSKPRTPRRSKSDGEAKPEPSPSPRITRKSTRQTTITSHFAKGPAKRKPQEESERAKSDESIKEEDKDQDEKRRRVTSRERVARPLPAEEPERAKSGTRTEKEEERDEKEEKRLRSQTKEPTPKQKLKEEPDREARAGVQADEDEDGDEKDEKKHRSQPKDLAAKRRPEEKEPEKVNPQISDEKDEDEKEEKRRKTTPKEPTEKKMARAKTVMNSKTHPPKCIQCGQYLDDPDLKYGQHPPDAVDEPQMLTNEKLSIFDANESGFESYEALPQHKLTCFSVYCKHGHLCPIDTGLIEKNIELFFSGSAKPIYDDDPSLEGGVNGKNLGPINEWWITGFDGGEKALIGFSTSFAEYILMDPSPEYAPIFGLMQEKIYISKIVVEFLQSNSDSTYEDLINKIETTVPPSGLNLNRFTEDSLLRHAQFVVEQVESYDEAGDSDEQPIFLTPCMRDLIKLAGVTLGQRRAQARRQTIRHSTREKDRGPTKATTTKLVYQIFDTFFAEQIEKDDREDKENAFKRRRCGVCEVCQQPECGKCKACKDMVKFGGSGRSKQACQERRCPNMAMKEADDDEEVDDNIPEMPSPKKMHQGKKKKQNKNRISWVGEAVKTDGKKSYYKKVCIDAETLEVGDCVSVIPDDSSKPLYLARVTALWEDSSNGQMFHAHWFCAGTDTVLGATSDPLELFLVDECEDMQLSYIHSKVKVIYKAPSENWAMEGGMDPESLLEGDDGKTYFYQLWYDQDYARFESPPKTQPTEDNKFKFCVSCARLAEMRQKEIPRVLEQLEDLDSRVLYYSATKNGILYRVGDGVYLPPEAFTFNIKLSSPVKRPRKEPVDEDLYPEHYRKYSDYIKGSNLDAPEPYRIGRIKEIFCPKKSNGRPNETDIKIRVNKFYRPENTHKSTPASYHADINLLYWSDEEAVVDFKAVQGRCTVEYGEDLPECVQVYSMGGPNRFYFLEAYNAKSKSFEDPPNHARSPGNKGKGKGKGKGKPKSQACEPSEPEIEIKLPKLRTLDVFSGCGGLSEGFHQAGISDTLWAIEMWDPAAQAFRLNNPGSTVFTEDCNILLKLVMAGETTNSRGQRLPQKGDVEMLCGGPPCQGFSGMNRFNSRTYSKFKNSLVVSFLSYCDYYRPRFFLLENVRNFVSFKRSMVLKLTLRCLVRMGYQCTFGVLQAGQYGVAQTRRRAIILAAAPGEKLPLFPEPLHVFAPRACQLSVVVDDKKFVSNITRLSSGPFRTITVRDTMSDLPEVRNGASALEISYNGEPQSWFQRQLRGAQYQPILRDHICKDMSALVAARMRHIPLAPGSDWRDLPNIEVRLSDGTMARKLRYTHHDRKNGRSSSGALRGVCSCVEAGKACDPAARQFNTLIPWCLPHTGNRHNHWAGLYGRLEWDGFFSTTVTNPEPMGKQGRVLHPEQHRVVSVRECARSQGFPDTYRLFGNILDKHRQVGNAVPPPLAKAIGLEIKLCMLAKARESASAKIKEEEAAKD
# Sequence of human G9a enzyme (Q96KQ7 whole entry): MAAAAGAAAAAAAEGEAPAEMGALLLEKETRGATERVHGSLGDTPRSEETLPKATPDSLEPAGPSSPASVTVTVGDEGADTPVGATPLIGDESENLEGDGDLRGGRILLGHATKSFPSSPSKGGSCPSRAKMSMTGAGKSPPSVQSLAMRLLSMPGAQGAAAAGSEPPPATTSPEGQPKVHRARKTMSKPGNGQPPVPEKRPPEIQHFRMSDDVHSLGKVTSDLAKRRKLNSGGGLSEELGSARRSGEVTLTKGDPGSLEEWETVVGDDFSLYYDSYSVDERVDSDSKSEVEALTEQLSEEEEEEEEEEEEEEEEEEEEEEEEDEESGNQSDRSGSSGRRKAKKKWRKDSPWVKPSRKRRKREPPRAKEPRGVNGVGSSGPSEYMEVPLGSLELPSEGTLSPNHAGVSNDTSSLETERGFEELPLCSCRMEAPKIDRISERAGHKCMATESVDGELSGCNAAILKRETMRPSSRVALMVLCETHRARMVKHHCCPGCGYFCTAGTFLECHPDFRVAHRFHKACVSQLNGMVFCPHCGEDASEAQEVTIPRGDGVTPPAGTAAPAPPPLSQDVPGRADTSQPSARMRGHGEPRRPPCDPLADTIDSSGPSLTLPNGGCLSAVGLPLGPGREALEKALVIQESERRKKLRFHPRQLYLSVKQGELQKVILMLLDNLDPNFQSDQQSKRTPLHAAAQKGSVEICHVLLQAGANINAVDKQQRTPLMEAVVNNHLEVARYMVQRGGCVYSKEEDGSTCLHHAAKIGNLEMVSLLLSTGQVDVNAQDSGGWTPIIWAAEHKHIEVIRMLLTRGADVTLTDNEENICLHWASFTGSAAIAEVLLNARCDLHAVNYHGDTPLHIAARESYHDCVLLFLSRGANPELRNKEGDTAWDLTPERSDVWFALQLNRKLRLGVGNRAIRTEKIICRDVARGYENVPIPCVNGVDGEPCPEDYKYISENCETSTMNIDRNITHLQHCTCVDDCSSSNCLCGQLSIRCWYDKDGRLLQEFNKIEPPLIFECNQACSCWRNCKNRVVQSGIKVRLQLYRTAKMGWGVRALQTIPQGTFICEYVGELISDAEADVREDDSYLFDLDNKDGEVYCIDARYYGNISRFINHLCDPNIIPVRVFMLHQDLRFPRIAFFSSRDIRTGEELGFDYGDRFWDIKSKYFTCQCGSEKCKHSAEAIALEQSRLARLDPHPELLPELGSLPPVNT
structure (smiles),measurement,setting,value
"COc1cc2c(cc1OCCCN1CCCC1)nc(-c1ccc(C)o1)c1cc(CC3CCN(C)CC3)[nH]c12 [Compound 1-02, 8-methoxy-4-(5-methyl-2-furyl)-2-[(1-methyl-4-piperidyl)methyl]-7-(3-pyrrolidin-1-ylpropoxy)-1H-pyrrolo[3,2-c]quinoline]",IC50,human G9a enzyme,100 to 500 nM
same,IC50,human DNMT1,100 to 500 nM
same,GI50,[1],100 to 1000 nM
same,GI50,[2],100 to 1000 nM
same,GI50,[3],1000 to 10000 nM
same,GI50,[4]; Homo sapiens,1000 to 10000 nM
same,GI50,[5]; Homo sapiens,1000 to 10000 nM
same,GI50,[6]; Homo sapiens,100 to 1000 nM
"COc1cc2c(cc1OCCCN1CCCC1)nc(-c1ccc(C)o1)c1cc(CC3CCN(C(C)C)CC3)[nH]c12 [Compound 1-03, 2-[(1-isopropyl-4-piperidyl)methyl]-8-methoxy-4-(5-methyl-2-furyl)-7-(3-pyrrolidin-1-ylpropoxy)-1H-pyrrolo[3,2-c]quinoline]",IC50,human G9a enzyme,100 to 500 nM
same,IC50,human DNMT1,500 to 1000 nM
same,GI50,[1],1000 to 10000 nM
same,GI50,[4]; Homo sapiens,1000 to 10000 nM
same,GI50,[5]; Homo sapiens,1000 to 10000 nM
same,GI50,[6]; Homo sapiens,100 to 1000 nM
CCc1ccc(-c2nc3cc(OCCCN4CCCC4)c(OC)cc3c3[nH]c(CC4CCN(C)CC4)cc23)o1 [Compound 1-04],IC50,human G9a enzyme,100 to 500 nM
same,IC50,human DNMT1,500 to 1000 nM
same,GI50,[1],100 to 1000 nM
same,GI50,[4],1000 to 10000 nM
same,GI50,[5],1000 to 10000 nM
same,GI50,[6],100 to 1000 nM
"COc1cc2c3c(c(-c4ccc(C)o4)nc2cc1OCCCN1CCCC1)CCC(CC1CCN(C)CC1)N3 (centres unmarked) [Compound 2-06, 9-methoxy-5-(5-methyl-2-furyl)-2-[(1-methyl-4-piperidyl)methyl]-8-(3-pyrrolidin-1-ylpropoxy)-1,2,3,4-tetrahydrobenzo[h][1,6]naphthyridine]",IC50,human G9a enzyme,< 100 nM
same,IC50,human DNMT1,100 to 500 nM
same,GI50,[1],1000 to 10000 nM
same,GI50,[4]; Homo sapiens,≥ 10000 nM
same,GI50,[5]; Homo sapiens,≥ 10000 nM
same,GI50,[6]; Homo sapiens,1000 to 10000 nM
"COc1cc2c3c(c(-c4ccc(C)o4)nc2cc1OCCCN1CCCC1)CCC(CC1CCN(C2CC2)CC1)N3 (centres unmarked) [Compound 2-07, 2-[(1-cyclopropyl-4-piperidyl)methyl]-9-methoxy-5-(5-methyl-2-furyl)-8-(3-pyrrolidin-1-ylpropoxy)-1,2,3,4-tetrahydrobenzo[h][1,6]naphthyridine]",IC50,human G9a enzyme,< 100 nM
same,IC50,human DNMT1,500 to 1000 nM
same,GI50,[1],1000 to 10000 nM
same,GI50,[4]; Homo sapiens,1000 to 10000 nM
same,GI50,[5]; Homo sapiens,1000 to 10000 nM
same,GI50,[6]; Homo sapiens,1000 to 10000 nM
"COc1cc2c3c(c(-c4ccc(C)o4)nc2cc1OCCCN1CCCC1)CCC(CC1CCN(C(C)C)CC1)N3 (centres unmarked) [Compound 2-08, 2-[(1-isopropyl-4-piperidyl)methyl]-9-methoxy-5-(5-methyl-2-furyl)-8-(3-pyrrolidin-1-ylpropoxy)-1,2,3,4-tetrahydrobenzo[h][1,6]naphthyridine]",IC50,human G9a enzyme,< 100 nM
same,IC50,human DNMT1,500 to 1000 nM
same,GI50,[1],1000 to 10000 nM
same,GI50,[4]; Homo sapiens,1000 to 10000 nM
same,GI50,[5]; Homo sapiens,1000 to 10000 nM
same,GI50,[6]; Homo sapiens,1000 to 10000 nM
